{"source": "patent US20020052365A1", "about": "“Selective anxiolytic therapeutic agents” (priority 2000, published 2002)", "key": {"[1]": {"test_system": "GABAA receptors in hippocampal pyramidal cells from wild type mice", "test": "Patch-clamp GABA responses in cultured hippocampal pyramidal cells, wild type", "assay_type": "cell-based, mouse", "experimental": "(§1) FIGS. 2A-C. […] The holding potential in the patch-clamp analysis was −60 mV the chloride concentration symmetrical. GABA was applied for 5 sec. Hippocampal neurons from E16.5 embryos were cultured for 10-14 days."}, "[2]": {"test_system": "wild type, α2(H101R) and α3(H126R) mice", "test": "Pentylenetetrazole test", "assay_type": "in vivo, mouse", "details": "pentylenetetrazole 120 mg/kg ip, diazepam 3, 10, 30 mg/kg p.o.", "experimental": "(§2) V, vehicle. […] 31:733. Locomotor activity was automatically recorded for 30 min.\nFollowing pentylenetetrazole treatment (120 mg/kg ip), occurrence and/or latency to tonic seizures was recorded for a maximum of 10 minutes in wild type and mutant mice. […]."}, "[3]": {"target": "T1, α3 subunits from α3(H126R) mice (Mus musculus, UniProt P22723+P26049, H154R)", "T1 construct": "from tissue; host or cells: brain of α3(H126R) knock-in mice", "T1 sequence (P26049 29-492 H154R)": "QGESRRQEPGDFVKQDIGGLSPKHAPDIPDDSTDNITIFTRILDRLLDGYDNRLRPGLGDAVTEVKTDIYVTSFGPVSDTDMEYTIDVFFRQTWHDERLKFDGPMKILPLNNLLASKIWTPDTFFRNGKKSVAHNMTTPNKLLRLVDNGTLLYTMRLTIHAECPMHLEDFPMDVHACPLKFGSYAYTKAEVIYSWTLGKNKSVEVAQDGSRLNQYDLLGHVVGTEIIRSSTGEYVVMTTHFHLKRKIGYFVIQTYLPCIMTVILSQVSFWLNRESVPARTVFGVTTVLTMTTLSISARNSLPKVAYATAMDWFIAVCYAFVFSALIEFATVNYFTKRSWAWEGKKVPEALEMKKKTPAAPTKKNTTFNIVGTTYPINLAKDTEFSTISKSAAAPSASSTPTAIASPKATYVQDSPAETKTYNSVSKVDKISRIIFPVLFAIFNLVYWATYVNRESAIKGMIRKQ", "T1 sequence (P22723 39-474)": "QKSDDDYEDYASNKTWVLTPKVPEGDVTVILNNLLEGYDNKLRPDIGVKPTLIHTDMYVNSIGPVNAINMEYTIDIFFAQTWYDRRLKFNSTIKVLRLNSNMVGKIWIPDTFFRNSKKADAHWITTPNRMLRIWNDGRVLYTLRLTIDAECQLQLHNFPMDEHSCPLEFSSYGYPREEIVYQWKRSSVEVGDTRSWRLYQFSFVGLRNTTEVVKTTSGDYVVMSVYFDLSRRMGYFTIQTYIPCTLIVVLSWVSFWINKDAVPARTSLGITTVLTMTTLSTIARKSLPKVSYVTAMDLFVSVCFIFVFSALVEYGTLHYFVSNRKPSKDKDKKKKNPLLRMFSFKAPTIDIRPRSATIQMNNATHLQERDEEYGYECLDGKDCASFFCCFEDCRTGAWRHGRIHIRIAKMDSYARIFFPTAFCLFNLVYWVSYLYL", "T1 sequence (P63080 26-473 partner)": "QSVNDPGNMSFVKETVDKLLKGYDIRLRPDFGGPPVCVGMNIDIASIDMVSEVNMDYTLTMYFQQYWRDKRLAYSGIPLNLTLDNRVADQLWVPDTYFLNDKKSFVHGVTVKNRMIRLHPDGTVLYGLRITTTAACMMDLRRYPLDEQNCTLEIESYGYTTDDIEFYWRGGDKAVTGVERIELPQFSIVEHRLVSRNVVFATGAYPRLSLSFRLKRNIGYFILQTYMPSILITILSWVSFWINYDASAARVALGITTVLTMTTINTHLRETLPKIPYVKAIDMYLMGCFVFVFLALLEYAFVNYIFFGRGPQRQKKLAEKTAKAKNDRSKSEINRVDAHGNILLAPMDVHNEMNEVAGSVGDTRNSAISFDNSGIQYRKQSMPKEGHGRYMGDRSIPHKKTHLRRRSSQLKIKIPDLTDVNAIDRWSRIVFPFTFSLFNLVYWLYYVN", "test": "Diazepam affinity by [3H]Ro15-4513 binding after immunoprecipitation with α3 subunit-specific antiserum", "details": "immunoprecipitated", "from_the_text": "(§3) To distinguish between the pharmacology of α2 and α3 receptor subtypes, two mouse lines were generated in which a point mutation was introduced into homologous positions of the α2 subunit gene [α2(H101R)]"}, "[4]": {"test_system": "GABAA receptors in hippocampal pyramidal cells from α2(H101R) mice", "test": "Patch-clamp GABA responses in cultured hippocampal pyramidal cells, α2(H101R)", "assay_type": "cell-based, mouse", "experimental": "as §1"}, "[5]": {"test_system": "wild type, α2(H101R) and α3(H126R) mice", "test": "Light/dark choice test", "assay_type": "in vivo, mouse", "details": "for time in the lit area: sodium phenobarbital 15 mg/kg s.c., n=6-8", "experimental": "(§4) FIG. 4A: Light/dark choice test. […] FIGS. 4B-C: Elevated plus-maze. […] FIG. 4D: Light/dark choice test. […] FIGS. 4E-F: Elevated plus-maze. […] Results are given as means ±S.E.M.+, P<0.05;++, P<0.01;+++P<0.001 (Dunnett's or Fisher's pair-wise post-hoc comparisons or Fisher's exact tests). […] The light-dark choice test was carried out as described infra with an illumination of 500 lux. […] The elevated plus-maze was performed as described infra under an indirect dim light illumination (<10 lux).\nIn a chamber containing an interconnected dark and lit (500 lux) box, the behavior of wild-type and mutant mice was tested for 5 min following the first entry into the dark compartment. […] The time spent in the lit box was recorded.\n(§5) Female wild-type and mutant mice were raised in the test rooms and behaviorally tested during the dark period of the 1 2-hr light/dark cycle."}, "[6]": {"test_system": "wild type, α2(H101R) and α3(H126R) mice", "test": "Locomotor activity", "assay_type": "in vivo, mouse", "details": "diazepam 3, 10, 30 mg/kg p.o., 30 min prior", "experimental": "as §2"}, "[7]": {"target": "T2, α2 subunits from α2(H101R) mice (Mus musculus, UniProt P22723+P26048, H129R)", "T2 construct": "from tissue; host or cells: brain of α2(H101R) knock-in mice", "T2 sequence (P26048 29-451 H129R)": "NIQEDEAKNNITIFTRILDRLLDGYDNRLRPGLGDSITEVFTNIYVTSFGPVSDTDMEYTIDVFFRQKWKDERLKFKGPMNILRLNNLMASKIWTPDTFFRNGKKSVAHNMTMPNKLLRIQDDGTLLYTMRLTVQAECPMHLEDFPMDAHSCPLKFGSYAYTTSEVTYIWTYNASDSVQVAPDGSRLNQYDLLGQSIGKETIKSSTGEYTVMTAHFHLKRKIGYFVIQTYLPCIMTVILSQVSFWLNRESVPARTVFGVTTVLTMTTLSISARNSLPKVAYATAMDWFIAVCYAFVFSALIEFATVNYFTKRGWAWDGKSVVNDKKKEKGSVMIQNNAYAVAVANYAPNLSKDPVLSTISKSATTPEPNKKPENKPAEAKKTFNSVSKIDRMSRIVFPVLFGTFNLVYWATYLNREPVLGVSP", "T2 sequence (P22723 39-474)": "as the sequence (P22723 39-474) above", "T2 sequence (P63080 26-473 partner)": "as the sequence (P63080 26-473 partner) above", "test": "Diazepam affinity by [3H]Ro15-4513 binding after immunoprecipitation with α2 subunit-specific antiserum", "details": "immunoprecipitated", "from_the_text": "as §3"}, "[8]": {"test_system": "wild type, α2(H101R) and α3(H126R) mice", "test": "Elevated plus-maze", "assay_type": "in vivo, mouse", "details": "diazepam 2 mg/kg p.o.", "experimental": "as §4\nMice were placed on an elevated crossbar with two walled and two open arms under indirect dim illumination. […] The time spent on the open arms and the number of open arm entries was recorded for 5 minutes.\nas §5"}, "[9]": {"test_system": "wild type and α1-GABAA receptor (H101R) mice", "test": "Withdrawal after chronic diazepam and flumazenil administration", "details": "chronic diazepam then flumazenil"}, "[10]": {"target": "diazepam-insensitive [3H]Ro15-4513 binding sites in α3(H126R) mice", "test": "[3H]Ro15-4513 binding to diazepam-insensitive sites, α3(H126R) mouse brain", "details": "n=3"}, "[11]": {"target": "diazepam-insensitive [3H]Ro15-4513 binding sites (α4 and α6 GABAA receptors)", "test": "[3H]Ro15-4513 binding to diazepam-insensitive sites, wild type mouse brain", "details": "n=3"}, "[12]": {"test_system": "recombinant α2(H101R)β3γ2 receptors", "details": "recombinant α2(H101R)β3γ2 in HEK-293 cells; cited from earlier work"}, "[13]": {"target": "diazepam-insensitive [3H]Ro15-4513 binding sites in α2(H101R) mice", "test": "[3H]Ro15-4513 binding to diazepam-insensitive sites, α2(H101R) mouse brain", "details": "n=3"}}, "note": "“Also recorded” adds a separate entry of the source."}
{"smiles": "CN1C(=O)CN=C(c2ccccc2)c2cc(Cl)ccc21", "note": "[diazepam]", "values": [{"measurement": "potentiation of GABA response by diazepam", "setting": "[1]; diazepam 1μM, GABA 3 μM, n=18", "result": "48.1±7.9", "unit": "%"}, {"measurement": "percentage of mice developing tonic convulsions (anticonvulsant action)", "setting": "[2]; wild type mice", "result": "Dose-dependent decrease of the percentage of mice developing tonic convulsions"}, {"measurement": "percentage of mice developing tonic convulsions (anticonvulsant action)", "setting": "[2]; α2(H101R) mice", "result": "not impaired; also recorded: Dose-dependent decrease of the percentage of mice developing tonic convulsions"}, {"measurement": "percentage of mice developing tonic convulsions (anticonvulsant action)", "setting": "[2]; α3(H126R) mice", "result": "not impaired; also recorded: Dose-dependent decrease of the percentage of mice developing tonic convulsions"}, {"measurement": "decrease in the affinity for diazepam", "setting": "[3]", "result": "more than 1,000 fold"}, {"measurement": "potentiation of GABA response by diazepam", "setting": "[4]; diazepam 1μM, GABA 3 μM, n=29", "result": "17.6±4.5", "unit": "%"}, {"measurement": "time spent in the lit area", "setting": "[5]; wild type mice, diazepam 0.5, 1, 2 mg/kg p.o.", "result": "dose-dependently increased the time spent in the lit area"}, {"measurement": "time spent in the lit area", "setting": "[5]; α2(H101R) mice, diazepam up to 2 mg/kg p.o.", "result": "did not increase the time spent in the lit area"}, {"measurement": "time spent in the lit area", "setting": "[5]; α3(H126R) mice, diazepam 0.5, 1, 2 mg/kg p.o.", "result": "Dose-dependent increase in the time spent in the lit area"}, {"measurement": "locomotor activity (sedative action)", "setting": "[6]", "result": "Dose-dependent inhibition of locomotor activity"}, {"measurement": "decrease in the affinity for diazepam", "setting": "[7]", "result": "more than 1,000 fold"}, {"measurement": "entries on the open arms", "setting": "[8]; wild type mice", "result": "increased"}, {"measurement": "percentage of time spent on the open arms", "setting": "[8]; wild type mice", "result": "increased"}, {"measurement": "entries on the open arms", "setting": "[8]; α2(H101R) mice", "result": "failed to increase"}, {"measurement": "percentage of time spent on the open arms", "setting": "[8]; α2(H101R) mice", "result": "failed to increase"}, {"measurement": "entries on the open arms", "setting": "[8]; α3(H126R) mice", "result": "increased"}, {"measurement": "percentage of time spent on the open arms", "setting": "[8]; α3(H126R) mice", "result": "increased"}, {"measurement": "withdrawal symptoms (locomotor activity)", "setting": "[9]; wild type mice", "result": "exhibited withdrawal symptoms"}, {"measurement": "withdrawal symptoms (locomotor activity)", "setting": "[9]; α1-GABAA receptor (H101R) mice", "result": "greatly reduced"}]}
{"smiles": "CCOC(=O)c1ncn2c1CN(C)C(=O)c1cc(N=[N+]=[N-])ccc1-2", "note": "[Ro15-4513]", "values": [{"measurement": "Kd", "setting": "[10]", "result": "6.5 ± 1.6", "unit": "nM"}, {"measurement": "modulation of GABA response by Ro15-4513 (inverse agonistic action)", "setting": "[1]; Ro15-4513 1μM, n=13", "result": "−39±5.2", "unit": "%"}, {"measurement": "Kd", "setting": "[11]; α2 wild type controls", "result": "4.3 ± 0.8", "unit": "nM"}, {"measurement": "Kd", "setting": "[11]; α3 wild type controls", "result": "4.9 ± 2.1", "unit": "nM"}, {"measurement": "modulation of GABA response by Ro15-4513 (agonistic response)", "setting": "[4]; Ro15-4513 1μM, n=23", "result": "11.7±7.5", "unit": "%"}, {"measurement": "efficacy of Ro15-4513", "setting": "[12]", "result": "from inverse agonism to agonism"}, {"measurement": "Kd", "setting": "[13]", "result": "8 ± 1.3", "unit": "nM"}]}
{"smiles": "CCC1(c2ccccc2)C(=O)NC(=O)NC1=O", "note": "[phenobarbital, Sodium phenobarbital]", "values": [{"measurement": "time in the lit area", "setting": "[5]; wild type mice", "result": 111.75, "unit": "s"}, {"measurement": "time in the lit area", "setting": "[5]; α2(H101R) mice", "result": 110.9, "unit": "s"}]}
